Molecular target: T1, human TRPM8 (Homo sapiens, UniProt Q7Z2W7)
T1 construct: expressed in transfected cells; host or cells: Chinese hamster ovary (CHO) cells, T-REx tetracycline-inducible system, co-transfected with aequorin
Experiment: Luminescence readout assay for measuring intracellular calcium, icilin activation
Type: cell-based
Settings: CHO cells expressing human TRPM8, aequorin luminescence, 1 μM icilin activation; read-out: hTRPM8 IC50
How it was run: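 The read-out was luminescence reporting intracellular calcium, recorded by a CCD-based luminometer. Compounds were preincubated for 2.5 min before agonist challenge with 1 μM icilin. Human TRPM8 was expressed in a stable T-REx CHO line, induced with 0.5 μg/mL tetracycline the day before.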

T1 sequence (Q7Z2W7 whole entry): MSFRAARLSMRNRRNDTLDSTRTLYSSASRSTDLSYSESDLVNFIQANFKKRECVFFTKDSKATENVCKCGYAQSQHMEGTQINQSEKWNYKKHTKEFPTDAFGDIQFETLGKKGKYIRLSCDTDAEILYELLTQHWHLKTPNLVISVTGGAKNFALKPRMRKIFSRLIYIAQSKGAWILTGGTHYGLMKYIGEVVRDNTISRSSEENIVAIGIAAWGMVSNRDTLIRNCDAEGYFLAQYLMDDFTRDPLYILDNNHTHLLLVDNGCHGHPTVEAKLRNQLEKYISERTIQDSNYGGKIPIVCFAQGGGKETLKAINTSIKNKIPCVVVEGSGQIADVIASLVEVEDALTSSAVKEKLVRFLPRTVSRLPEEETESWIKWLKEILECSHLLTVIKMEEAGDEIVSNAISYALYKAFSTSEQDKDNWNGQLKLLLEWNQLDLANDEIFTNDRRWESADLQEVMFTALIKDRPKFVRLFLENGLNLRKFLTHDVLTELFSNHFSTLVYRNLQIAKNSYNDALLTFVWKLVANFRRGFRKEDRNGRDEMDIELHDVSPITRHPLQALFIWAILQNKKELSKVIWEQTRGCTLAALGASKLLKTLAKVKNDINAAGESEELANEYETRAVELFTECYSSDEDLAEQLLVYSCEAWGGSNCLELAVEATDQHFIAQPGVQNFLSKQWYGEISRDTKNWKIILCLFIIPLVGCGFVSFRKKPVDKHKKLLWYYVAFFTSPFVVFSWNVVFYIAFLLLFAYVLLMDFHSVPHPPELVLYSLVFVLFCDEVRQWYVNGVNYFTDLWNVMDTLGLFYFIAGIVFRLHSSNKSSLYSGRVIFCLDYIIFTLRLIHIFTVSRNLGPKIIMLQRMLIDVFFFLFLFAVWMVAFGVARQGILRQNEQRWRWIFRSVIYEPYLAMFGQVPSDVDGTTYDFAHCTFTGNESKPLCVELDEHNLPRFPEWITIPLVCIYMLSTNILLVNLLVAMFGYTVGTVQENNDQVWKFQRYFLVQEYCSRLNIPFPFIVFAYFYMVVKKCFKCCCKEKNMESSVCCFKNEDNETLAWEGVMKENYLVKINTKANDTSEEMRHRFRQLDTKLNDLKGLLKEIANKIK

Structure (SMILES) | IC50 [nM]
O=C(N[C@@H](c1ccc(C(F)(F)F)cc1)c1ncccc1F)c1c[nH]c2ncccc12 [Example 54, (S)-N-((3-fluoropyridin-2-yl)(4-(trifluoromethyl)phenyl)methyl)-1H-pyrrolo[2,3-b]pyridine-3-carboxamide] | 23.1
COC(=O)c1ccc(C(=O)N[C@@H](c2ccc(C(F)(F)F)cc2)c2ncccc2C(F)(F)F)cc1 [Example 140, (S)-methyl 4-(((4-(trifluoromethyl)phenyl)(3-(trifluoro-methyl)pyridin-2-yl)methyl)carbamoyl)benzoate] | 52.7
O=C(N[C@@H](c1ccc(C(F)(F)F)cc1)c1ncccc1C(F)(F)F)c1ccc2nccc(Cl)c2c1 [Example 116, (S)-4-chloro-N-((4-(trifluoromethyl)phenyl)(3-(trifluoromethyl)pyridin-2-yl)methyl)quinoline-6-carboxamide 2,2,2-trifluoroacetate] | 42.9
COc1cc(C(=O)N[C@@H](c2ccc(C(F)(F)F)cc2)c2ncccc2C(F)(F)F)ccn1 [Example 34, (S)-2-methoxy-N-((4-(trifluoromethyl)phenyl)(3-(trifluoromethyl)pyridin-2-yl)methyl)isonicotinamide] | 32.2
Cc1cc(C(=O)N[C@@H](c2ccc(C(F)(F)F)cc2)c2ncccc2F)ccn1 [Example 53, (S)-N-((3-fluoropyridin-2-yl)(4-(trifluoromethyl)phenyl)methyl)-2-methylisonicotinamide] | 45.5
O=C(Cn1ccnc1)N[C@@H](c1ccc(C(F)(F)F)cc1)c1ncccc1C(F)(F)F [Example 161, (S)-2-(1H-imidazol-1-yl)-N-((4-(trifluoromethyl)phenyl)(3-(trifluoromethyl)pyridin-2-yl)methyl)acetamide 2,2,2-trifluoroacetate] | 3370
CN(C)c1cccc(C(=O)N[C@@H](c2ccc(C(F)(F)F)cc2)c2ncccc2C(F)(F)F)c1 [Example 186, (S)-3-(dimethylamino)-N-((4-(trifluoromethyl)phenyl)(3-(trifluoromethyl)pyridin-2-yl)methyl)benzamide] | 49.2
O=C(CC1CCOC1)N[C@@H](c1ccc(C(F)(F)F)cc1)c1ncccc1C(F)(F)F (stereo partly drawn) [Example 157, 2-(THF-3-yl)-N-((S)-(4-(trifluoromethyl)phenyl)(3-(trifluoromethyl)pyridin-2-yl)methyl)acetamide] | 716
O=C(N[C@@H](c1ccc(C(F)(F)F)cc1)c1ncccc1F)c1ccc2[nH]c(=O)oc2c1 [Example 78, (S)-N-((3-fluoropyridin-2-yl)(4-(trifluoromethyl)phenyl)methyl)-2-oxo-2,3-dihydrobenzo[d]oxazole-6-carboxamide] | 14.8
O=C1COc2cc(C(=O)N[C@@H](c3ccc(OC(F)(F)F)cc3)c3ncccc3F)ccc2N1 [Example 81] | 24.8
COc1ccc(C(=O)N[C@@H](c2ccc(C(F)(F)F)cc2)c2ncccc2C(F)(F)F)nn1 [Example 37, (S)-6-methoxy-N-((4-(trifluoromethyl)phenyl)(3-(trifluoromethyl)pyridin-2-yl)methyl)pyridazine-3-carboxamide] | 146
O=C(N[C@@H](c1ccc(C(F)(F)F)cc1)c1ncccc1C(F)(F)F)c1cc(O)ccn1 [Example 62, (S)-4-hydroxy-N-((4-(trifluoromethyl)phenyl)(3-(trifluoromethyl)pyridin-2-yl)methyl)picolinamide] | 172
O=C(N[C@@H](c1ccc(C(F)(F)F)cc1)c1ncccc1C(F)(F)F)c1cccc(I)c1 [Example 117, (S)-3-iodo-N-((4-(trifluoromethyl)phenyl)(3-(trifluoromethyl)pyridin-2-yl)methyl)benzamide] | 70
O=C1COc2cc(C(=O)N[C@@H](c3ccc(C(F)(F)F)cc3)c3ncccc3F)ccc2N1 [Example 73, (S)-N-((3-fluoropyridin-2-yl)(4-(trifluoromethyl)phenyl)methyl)-3-oxo-3,4-dihydro-2H-benzo[b][1,4]oxazine-7-carboxamide] | 17
O=C(N[C@@H](c1ccc(C(F)(F)F)cc1)c1ncccc1C(F)(F)F)c1cncnc1 [Example 147, (S)-N-((4-(trifluoromethyl)phenyl)(3-(trifluoromethyl)pyridin-2-yl)methyl)pyrimidine-5-carboxamide] | 148
O=C(O)c1cccc(C(=O)N[C@@H](c2ccc(C(F)(F)F)cc2)c2ncccc2C(F)(F)F)c1 [Example 179, (S)-3-(((4-(trifluoromethyl)phenyl)(3-(trifluoromethyl)pyridin-2-yl)methyl)carbamoyl)benzoic acid] | 39.8
O=C(N[C@@H](c1ccc(C(F)(F)F)cc1)c1ncccc1F)c1ccc2nccc(O)c2c1 [Example 114, (S)-N-((3-fluoropyridin-2-yl)(4-(trifluoromethyl)phenyl)methyl)-4-hydroxyquinoline-6-carboxamide 2,2,2-trifluoroacetate] | 50.6

More lines, now with the values ahead:

IC50 [nM] | Structure (SMILES)
8.9 | O=C(N[C@@H](c1ccc(C(F)(F)F)cc1)c1ncccc1C(F)(F)F)c1ccc2c(c1)CNC2=O [Example 271, (S)-1-Oxo-N-((4-(trifluoromethyl)phenyl)(3-(trifluoromethyl)-pyridin-2-yl)methyl)isoindoline-5-carboxamide]
12.8 | O=C(N[C@@H](c1ccc(OC(F)(F)F)c(F)c1)c1ncccc1F)c1c[nH]c(=O)c(Cl)c1 [Example 401, (S)-5-chloro-N-((3-fluoro-4-(trifluoromethoxy)phenyl)(3-fluoropyridin-2-yl)methyl)-6-oxo-1,6-dihydropyridine-3-carboxamide]
1110 | CC(C)(C)c1cccnc1[C@@H](NC(=O)c1ccc2cccnc2c1)c1ccc(C(F)(F)F)cc1 [Example 286, (S)—N-((3-(tert-Butyl)pyridin-2-yl)(4-(trifluoromethyl)phenyl)-methyl)quinoline-7-carboxamide 2,2,2-trifluoroacetate]
48 | O=C(NC(c1ccc(OC(F)(F)F)c(F)c1)c1cccc(F)c1F)c1ccc(=O)[nH]c1 (stereo not shown) [Example 412, N-((2,3-difluorophenyl)(3-fluoro-4-(trifluoromethoxy)phenyl)methyl)-6-oxo-1,6-dihydropyridine-3-carboxamide]
21.8 | O=C(O)c1ccc(C(=O)N[C@@H](c2ccc(C(F)(F)F)cc2)c2ncccc2C(F)(F)F)cc1 [Example 283, (S)-4-(((4-(Trifluoromethyl)phenyl)(3-(trifluoromethyl)-pyridin-2-yl)methyl)carbamoyl)benzoic Acid]
188 | N#Cc1cc(C(=O)N[C@@H](c2ccc(C(F)(F)F)cc2)c2ncccc2F)c[nH]c1=O [Example 277, (S)-5-Cyano-N-((3-fluoropyridin-2-yl)(4-(trifluoromethyl)-phenyl)methyl)-6-oxo-1,6-dihydropyridine-3-carboxamide]
109 | O=C(N[C@@H](c1ccc(C(F)(F)F)c(F)c1)c1ccccc1C(F)(F)F)c1ccc2ncccc2c1 [Example 257, (S)-N-((3-fluoro-4-(trifluoromethyl)phenyl)(2-(trifluoromethyl)phenyl)methyl)quinoline-6-carboxamide]
17.6 | CCn1cc(C(=O)N[C@@H](c2ccc(OC(F)(F)F)cc2)c2ncccc2F)ccc1=O [Example 255, (S)-1-ethyl-N-((3-fluoropyridin-2-yl)(4-(trifluoromethoxy)phenyl)methyl)-6-oxo-1,6-dihydropyridine-3-carboxamide]
68.6 | N#Cc1ccc(C(=O)N[C@@H](c2ccc(C(F)(F)F)cc2)c2ncccc2C(F)(F)F)nc1 [Example 275, (S)-5-Cyano-N-((4-(trifluoromethyl)phenyl)(3-(trifluoro-methyl)pyridin-2-yl)methyl)picolinamide]
41.7 | C[C@@H](O)Cn1cc(C(=O)N[C@@H](c2ccc(C(F)(F)F)cc2)c2ncccc2F)ccc1=O [Example 301, N-((S)-(3-fluoropyridin-2-yl)(4-(trifluoromethyl)phenyl)methyl)-1-((R)-2-hydroxypropyl)-6-oxo-1,6-dihydropyridine-3-carboxamide]
13.6 | Cc1cccnc1[C@@H](NC(=O)c1ccc(=O)[nH]c1)c1ccc(OC(F)(F)F)cc1 [Example 359, (S)-N-((3-methylpyridin-2-yl)(4-(trifluoromethoxy)phenyl)methyl)-6-oxo-1,6-dihydropyridine-3-carboxamide]
2160 | O=C(N[C@@H](c1ccc(C(F)(F)F)cc1)c1ncccc1C(F)(F)F)c1ccc(C(=O)O)nc1 [Example 285, (S)-5-(((4-(Trifluoromethyl)phenyl)(3-(trifluoromethyl)-pyridin-2-yl)methyl)carbamoyl)picolinic Acid 2,2,2-trifluoroacetate]
332 | O=C(N[C@@H](c1ccc(C(F)(F)F)cc1)c1nc(F)ccc1F)c1ccc(=O)[nH]c1 [Example 291, (S)-N-((3,6-difluoropyridin-2-yl)(4-(trifluoromethyl)phenyl)methyl)-6-oxo-1,6-dihydropyridine-3-carboxamide]
1480 | COc1ccc([C@H](NC(=O)c2ccc(=O)n(C)c2)c2ncccc2F)cc1 [Example 343, (S)-N-((3-fluoropyridin-2-yl)(4-methoxyphenyl)methyl)-1-methyl-6-oxo-1,6-dihydropyridine-3-carboxamide]
121 | COc1cccc(C(=O)NC(c2ccc(C(F)(F)F)cc2)c2ncccc2F)c1 (stereo not shown) [Example 214, N-((3-fluoropyridin-2-yl)(4-(trifluoromethyl)phenyl)methyl)-3-methoxybenzamide]
7.9 | O=C(N[C@@H](c1ccc(OC(F)(F)F)c(F)c1)c1ncccc1C(F)(F)F)c1ccc(=O)[nH]c1 [Example 383, (S)-N-((3-fluoro-4-(tritluoromethoxy)phenyl)(3-(trifluoromethyl)pyridin-2-yl)methyl)-6-oxo-1,6-dihydropyridine-3-carboxamide]
209 | Cc1ccc([C@H](NC(=O)c2ccc(=O)n(C)c2)c2ncccc2F)cc1F [Example 335, (S)-N-((3-fluoro-4-methylphenyl)(3-fluoropyridin-2-yl)methyl)-1-methyl-6-oxo-1,6-dihydropyridine-3-carboxamide]

Reference: patent publication US8710043B2, “TRPM8 antagonists and their use in treatments” (Amgen Inc., priority 2011, dated 2014)
